Experiments:
[1] = molecular target: T1, human serotonin transporter (Homo sapiens, UniProt P31645); assay: hSERT receptor binding ([125I]-RTI-55, membranes of transfected HEK-293 cells); conditions: 50 pM [125I]-RTI-55, 90 min room temperature; IC50 converted by Cheng-Prusoff
T1 construct: host or cells: HEK-293
Method in brief: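 Membranes of HEK-293 cells expressing human SERT incubated 90 min at room temperature with 50 pM [125I]-RTI-55 and compound (10^−5 to 10^−12 M) in Krebs-HEPES, pH 7.4. Nonspecific binding defined with 10 μM citalopram; IC50 converted to Ki by Cheng-Prusoff.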

[2] = molecular target: T2, human norepinephrine transporter (Homo sapiens, UniProt P23975); assay: hNET receptor binding ([125I]-RTI-55, membranes of transfected HEK-293 cells); conditions: 50 pM [125I]-RTI-55, 90 min room temperature; IC50 converted by Cheng-Prusoff
T2 construct: host or cells: HEK-293
T2 sequence (P23975 whole entry): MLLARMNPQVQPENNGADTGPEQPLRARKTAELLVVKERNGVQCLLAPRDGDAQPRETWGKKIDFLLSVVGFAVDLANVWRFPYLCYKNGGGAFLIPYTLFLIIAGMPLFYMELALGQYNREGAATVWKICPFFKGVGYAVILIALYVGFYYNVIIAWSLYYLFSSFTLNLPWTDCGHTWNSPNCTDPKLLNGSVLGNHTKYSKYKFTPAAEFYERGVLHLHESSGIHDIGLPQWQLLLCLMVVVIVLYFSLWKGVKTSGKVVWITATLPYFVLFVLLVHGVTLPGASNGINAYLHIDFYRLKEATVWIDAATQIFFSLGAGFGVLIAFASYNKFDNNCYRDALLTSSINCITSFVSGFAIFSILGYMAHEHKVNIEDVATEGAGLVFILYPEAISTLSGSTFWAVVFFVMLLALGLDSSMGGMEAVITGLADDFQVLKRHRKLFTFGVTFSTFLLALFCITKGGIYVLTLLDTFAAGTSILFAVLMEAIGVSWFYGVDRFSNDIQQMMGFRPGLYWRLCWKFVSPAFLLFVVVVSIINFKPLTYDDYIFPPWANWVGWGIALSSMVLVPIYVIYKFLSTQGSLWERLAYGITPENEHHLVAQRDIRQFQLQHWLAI
Method in brief: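 Competition binding on membranes from HEK-293 cells transfected with human NET, using 50 pM [125I]-RTI-55 in Krebs-HEPES pH 7.4, drug 10^−5 to 10^−12 M in duplicate, 90 min at room temperature, filtration. Nonspecific binding defined with 10 μM desipramine; IC50 converted to Ki by Cheng-Prusoff.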

T1 sequence (P31645 whole entry): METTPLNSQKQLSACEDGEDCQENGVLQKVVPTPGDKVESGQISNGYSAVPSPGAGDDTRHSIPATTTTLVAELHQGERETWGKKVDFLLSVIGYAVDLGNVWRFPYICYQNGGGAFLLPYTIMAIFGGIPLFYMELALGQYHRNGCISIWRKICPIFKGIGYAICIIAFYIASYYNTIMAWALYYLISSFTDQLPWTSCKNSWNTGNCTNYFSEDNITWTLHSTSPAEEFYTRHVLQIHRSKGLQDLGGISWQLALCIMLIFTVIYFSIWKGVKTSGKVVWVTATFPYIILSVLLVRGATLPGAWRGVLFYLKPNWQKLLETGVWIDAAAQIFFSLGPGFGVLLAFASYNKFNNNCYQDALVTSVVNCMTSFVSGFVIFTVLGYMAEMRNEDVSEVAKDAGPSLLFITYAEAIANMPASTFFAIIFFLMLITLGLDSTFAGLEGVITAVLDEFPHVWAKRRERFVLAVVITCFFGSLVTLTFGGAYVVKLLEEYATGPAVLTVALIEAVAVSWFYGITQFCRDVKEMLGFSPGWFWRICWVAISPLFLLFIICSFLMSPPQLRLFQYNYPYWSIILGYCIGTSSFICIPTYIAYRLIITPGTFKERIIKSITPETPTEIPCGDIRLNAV

melting point [°C] | Ki [1] [nM] | Ki [2] [nM] | Compound
276 to 277 | 12 | 1.7 | Cl.Fc1ccccc1-c1nc(N2CCNCC2)nc2ccccc12 [Example 20, 4-(2-Fluoro-phenyl)-2-piperazin-1-yl-quinazoline hydrochloride]
107 to 108 | – | 41 | CC1CN(c2nc(-c3ccccc3)c3ccccc3n2)CCN1 (centres unmarked) [Example 54, 2-(3-Methyl-piperazin-1-yl)-4-phenyl-quinazoline]
203 to 206 | – | 4 | Fc1cccc(-c2nc(N3CCCNCC3)nc3ccccc23)c1F [Example 57, 2-[1,4]Diazepan-1-yl-4-(2,3-difluoro-phenyl)-quinazoline]
147 to 148 | – | 2.7 | Fc1ccc2c(-c3ccccc3F)nc(N3CCNCC3)nc2c1 [Example 59, 7-Fluoro-4-(2-fluoro-phenyl)-2-piperazin-1-yl-quinazoline]

Compound | melting point [°C] | Ki [1] [nM] | Ki [2] [nM]
c1ccc(-c2nc(N3C4CCC3CNC4)nc3ccccc23)cc1 [Example 56, 2-(3,8-Diaza-bicyclo[3.2.1]oct-8-yl)-4-phenyl-quinazoline] | 278 to 280 | – | 5

— patent US20050096327A1, “Novel norepinephrine reuptake inhibitors for the treatment of central nervous system disorders” (priority 2003, published 2005)
